The source of these data is patent publication US9314521B2, “Adjuvant compound” (ISA Pharmaceuticals B.V., priority 2011, dated 2016).

One experiment deals with DC. Description: UPam variants: up-regulation of cell surface markers CD40, CD86 and MHC Class II (DC maturation). The format is cell-based. The following applies: 3 μM and 30 nM. How it is done: The UPam variants wherein Xn was varied were compared by measuring IL-12 production and the up-regulation of the cell surface markers CD40, CD86 and MHC Class II at 3 μM and 30 nM. Herein, Xn takes the place of serine in the SK4 (SEQ ID NO: 18) peptide part according to formula (2), containing different groups for R^5. Compounds X1 up to X8 containing these different groups R^5, which were studied are listed in the table below, wherein X1 is the UPam-14 as prepared in Example 1 and X2 is the UPam-14-Abu as prepared in Example 3. The potency of the compounds to upregulate CD40 followed the trend as observed in the DC maturation assay. […] In the up-regulation of the cell surface marker CD86 and MHC class II a corroborated trend was observed.

The subject of experiment [1] is human monocyte-derived dendritic cells (moDC). Description: activation of human monocyte-derived dendritic cells (moDC): IL12p40, IL12p70 ELISA and CD86 staining (FIG. 5). The experiment is classed as cell-based. The following applies: 48 hours of incubation, compared to Pam3CSK4 or Pam-SLP. As for the experimental part:
On day 5 of culturing the CD 14±fraction of donor PBMC in growth medium with IL-4 and GM-CSF, these moDC were incubated with either wt Pam3CSK4 (SEQ ID NO: 11), U-Pam14, Pam3CSK4 (SEQ ID NO: 11)-conjugated or U-Pam14-conjugated synthetic long peptide (Pam-SLP or uPam14-SLP), or left unstimulated. After 48 hours of incubation, the supernatant of the moDC cultures was taken, which was subjected to IL12p40 (FIG. 5A) and IL12p70 (FIG. 5B) ELISA analysis. After 48 hours of incubation, the moDCs were stained with antibodies directed against CD86 (FIG. 5C).
On the technique in general: ELISA stands for enzyme-linked immunosorbent assay.

Another experiment concerns murine DC cell line. Description: DC maturation: cell surface marker expression in murine DC cell line by FACS (FIG. 4). The format is cell-based. The following applies: 30 nM, 48 hours, compared to Pam3CSK4. How it is done:
The DCs were subsequently stained with antibodies directed against CD40, CD86 and MHC class II molecules. Mean fluorescence intensity was determined FACS analysis.
A general note: Flow cytometry measures light scatter and fluorescence of single cells or particles in a stream.

The test system of experiment [2] is murine dendritic cell line. Description: activation of murine dendritic cell line, IL-12 ELISA. The experiment is classed as cell-based. The following applies: 24 hours, titrating concentrations. As for the experimental part:
The two compounds U-Pam-12 and U-Pam-14 as obtained in Example 1 were tested in comparison to unmodified Pam3CysSK4 (SEQ ID NO: 11) for their functional capacity to activate a human TLR2 expressing reporter cell line HEK-TLR2 (FIG. 3A) and a murine dendritic cell line (FIG. 3B).
In the test live TLR2-transfected HEK cells and dendritic cells (5×10^4 cells/well) were incubated with titrating concentrations of the respective Pam compounds in culture medium and incubated at 37° C. After 24 hours, supernatants were harvested and the presence of IL-8 or IL-12 cytokines respectively, was measured by specific sandwich ELISA assays.

The test system of a further experiment is cellular immune response. The following applies: mice; Vaccine 22 (2004) 2494-2499; cited from earlier work.

Non-standard residues stand in square brackets, D forms with d. No end group written: not given here. *: point of attachment. Cys((RS)-2,3-di(palmitoyloxy)-propyl) = Cys S-substituted with (RS)-2,3-di(palmitoyloxy)-propyl (dipalmitoyl-glyceryl); X1 = (RS)‑2,3‑di(palmitoyloxy)‑propyl, CCCCCCCCCCCCCCCC(=O)OCC(C*)OC(=O)CCCCCCCCCCCCCCC; 1‑tetradecyl‑urea = N-terminal tetradecyl-urea lipid group, CCCCCCCCCCCCCCNC(=O)*; Abu = CC[C@H](N)C(=O)O

Consider “1-tetradecyl-urea-Cys((RS)-2,3-di(palmitoyloxy)-propyl)-Abu-Lys-Lys-Lys-Lys-NH2 ({1‑tetradecyl‑urea-Cys((RS)-2,3-di(palmitoyloxy)-propyl)}-[Abu]KKKK-NH2) [Upam-14-Abu]”, for which the “up-regulation of CD40 compared to Pam3Cys-SK4” value with DC is “increased amount of up-regulation”.
Turning to “1-tetradecyl-urea-Cys((RS)-2,3-di(palmitoyloxy)-propyl)-Ser-Lys-Lys-Lys-Lys-NH2 ({1‑tetradecyl‑urea}-C(X1)SKKKK-NH2; SMILES CCCCCCCCCCCCCCCC(=O)OCC(CSC[C@H](NC(=O)NCCCCCCCCCCCCCC)C(=O)N[C@@H](CO)C(=O)N[C@@H](CCCCN)C(=O)N[C@@H](CCCCN)C(=O)N[C@@H](CCCCN)C(=O)N[C@@H](CCCCN)C(N)=O)OC(=O)CCCCCCCCCCCCCCC) [U-Pam-14]”, the “activation of human dendritic cells (IL12p40, IL12p70, CD86)” value in experiment [1] is “improves activation of human dendritic cells”. The “expression of cell surface molecules CD40, CD86 and MHC class II (mean fluorescence intensity)” value in the experiment on murine DC cell line is given as “superior to wt Pam”. The “up-regulation of CD40 compared to Pam3Cys-SK4” value in the experiment on DC is listed as “increased amount of up-regulation”. In addition, in experiment [2], the “stimulation (IL-12 cytokine production) compared to unmodified Pam3CysSK4” value is “superior to wt Pam”.
As to “Pam3Cys-SK4: established TLR2/TLR1 ligand, state of the art lipopeptide adjuvant (SEQ ID NO: 11) (CSKKKK; not fully specified (residue 1, N-terminus))”, the “additive for eliciting a cellular immune response” value with cellular immune response was “most effective additive”.
